Data published in PMC9854762, “Antibiofilm and Anti-Quorum-Sensing Activities of Novel Pyrazole and Pyrazolo[1,5-a]pyrimidine Derivatives as Carbonic Anhydrase I and II Inhibitors: Design, Synthesis, Radiosterilization, and Molecular Docking Studies” (Antibiotics, 2023).
In brackets after ≈: the same amount, converted by molar mass. Several values for one entry are separate records, joined by “and”; a condition that tells them apart may be missing. Identical values can stand only once.

What was measured:
P. aeruginosa DH-5698 [1] = test: Agar well-diffusion assay; assay type: cell-based, Pseudomonus aeruginosa; conditions: Pseudomonas aeruginosa, DH5698; P. aeruginosa DH-5698; 50 µL of 10 mM per well; read-out: Diameter of Inhibition Zones (AZOI)
Protocol: The synthesized compounds were initially screened for their in vitro antibacterial activity against the different Gram-positive and Gram-negative bacteria, tested using the agar well-diffusion assay. The turbidity of the bacterial suspensions was established to the 0.5 McFarland turbidity standard. The activity was performed on TS agar plates. The bacteria were spread on the surface of the agar plates, and 10 mm wells were screwed into the agar plates. The assay was performed under aseptic conditions. An aliquot of 50 µL of each tested compound (10 mM) was added to the wells, and the plates were incubated overnight at 37 °C. Both Erythromycin and Amikacin antibiotic disks were used as positive control, while DMSO solvent was used as a negative control in this study. The diameters of inhibition zones were measured and recorded in mm. A comparative study of the synthesized compounds was determined. The experiment was performed in triplicates.

A. baumannii DH-243 = test: Broth microdilution MIC/MBC; assay type: cell-based, Acinetobacter baumannii; conditions: for MIC: Acinetobacter baumannii, DH243, 24 h, read-out: MIC (Mean ± SEM); for MBC/MIC: value in brackets
Protocol: (§1) The broth microdilution method was taken as a basis to detect the MICs of pyrazole compounds against tested clinical isolates, according to the Clinical Laboratory and Standards Institute guidelines. The broth cultures were used to prepare the bacterial inoculums, and the suspensions were adjusted to the standard 0.5 McFarland turbidity. Stock solutions of the synthesized pyrazoles were prepared in pure DMSO and further serially diluted with TS broth in the concentration range from 128 µg/mL to 0.0625 µg/mL. A well containing noninoculated TS broth, free of any antimicrobial agents, was also included to ensure the medium sterility, while Erythromycin and Amikacin served as positive controls. Bacterial growth was determined by adding 20 µL of 0.5% TTC (2,3,5-triphenyltetrazolium chloride) aqueous solution. […] All experiments were repeated three times. The bactericidal effect from each concentration of the pyrazole and pyrazolo[1,5-a]pyrimidine derivatives showing growth inhibition was further studied. For this study, a loopful of 5 µL was taken from each no-visible growth tube and streaked onto plates of TS agar.

P. aeruginosa DH-5698 [2] = test: Broth microdilution MIC/MBC; assay type: cell-based, Pseudomonus aeruginosa; conditions: for MIC: Pseudomonas aeruginosa, DH5698, 24 h, read-out: MIC (Mean ± SEM); for MBC/MIC: value in brackets
Protocol: as §1

hCA-II = biological target: T1, hCA-II (Homo sapiens, UniProt P00918); test: Carbonic anhydrase isoenzyme inhibition assay; assay type: biochemical; conditions: for Ki: Lineweaver–Burk graphs
T1 construct: from tissue; host or cells: human erythrocytes (hemolysate)
Protocol: (§2) The purification of both human cytosolic CA isoforms was carried out as previously described, using a simple one-step procedure of Sepharose-4B-L-tyrosine-sulfanilamide affinity chromatography. […] The carbonic anhydrase isoenzymes’ activities were determined in accordance with the previous study. […] For the designation of the inhibition efficacy of each novel pyrazole and for the pyrazolo[1,5-a]pyrimidine derivatives on both hCA isoenzymes, an activity (%) graph was drawn. The IC50 values were obtained from activity (%) versus compounds plots. The Ki values were calculated using three concentrations for each derivative.

hCA-I = biological target: T2, hCA-I (Homo sapiens, UniProt P00915); test: Carbonic anhydrase isoenzyme inhibition assay; assay type: biochemical; conditions: for Ki: Lineweaver–Burk graphs
T2 construct: from tissue; host or cells: human erythrocytes (hemolysate)
Protocol: as §2

P. aeruginosa biofilm = test: Crystal violet biofilm inhibition assay; assay type: cell-based; conditions: compounds at their MICs, crystal violet OD570
Protocol: (§3) The microtiter plate method was used to evaluate the active pyrazoles’ inhibitory activities on the strong biofilm-forming bacterial strains. This method was carried out as described, with some modifications. The antibiofilm effects of tested pyrazoles are presented as a percentage change from untreated bacterial controls. Overnight cultures of micro-organisms in the TSB medium with 10% (wt/vol) glucose were prepared as 10^8 CFU/mL, and then 100 µL was dispensed into each test well. Then, 100 µL of different concentrations of compounds, at their MICs, were dispensed into each well. The negative control contained only TSB, whereas the positive control contained cell cultures without compound addition. The supernatant was decanted and each well gently rinsed three times with 300 µL of sterile distilled water and discarded after incubation at 37 °C for 48 h. The plates were dried with air for 40 min. They were stained with 0.1% (wt/vol) crystal violet at room temperature for 30 min and washed three times with sterile distilled water. Afterward, the crystal violet was solubilized in 95% ethanol, and the absorbance was read in a microplate reader (MicroplatePhotometer and Multiskan FC) at 570 nm. This test was performed in triplicate, and the mean was taken as an average of three readings. The percentage of biofilm inhibition was calculated according to Equation (1):(1) Biofilm eradication %=OD positivecontrol−OD sample /OD positive control×100

S. aureus DH-432 = test: Broth microdilution MIC/MBC; assay type: cell-based, Staphylococcus aureus; conditions: for MIC: Staphylococcus aureus, DH432, 24 h, read-out: MIC (Mean ± SEM); for MBC/MIC: value in brackets
Protocol: as §1

C. violaceum CV026 = test: Quorum-sensing inhibition bioassay on Soft Top agar; assay type: cell-based, Chromobacterium violaceum; conditions: CV026 biosensor strain, sub-MIC
Protocol: (§4) The anti-QS potential of the tested compounds was explored as described. Briefly, an overnight bacterial suspension of the indicator organism C. violaceum CV026 was prepared in a concentration of 10^6 CFU/mL, and an aliquot of 200 µL was seeded in 5 mm of Soft Top agar (1.3 g agar, 2.0 g tryptone, 1.0 g NaCl, and 200 mL deionized water), supplemented with 20 µL of 0.25 µg/mL C6-HSL (N-hexanoyl-L-homoserine lactone), added as an exogenous AHL source. Wells were cut in the center of the plate after incubation for 30 min and then filled with 50 µL of sub-MICs of each most-active pyrazole hybrid. DMSO was used as a negative control. The plates were incubated at 28 °C for 48 h. Inhibition of violacein production by the indicator strain around the well, indicated by the presence of a white circle surrounded by a purple halo, was considered as positive for QS interference. For further investigation to determine the anti-QS activity for the pyrazole against the biofilm-forming bacterial isolates, an in vitro screening was performed. This was carried out by inoculation of 200 µL from an O/N CV026 culture onto plates of Soft Top agar. Wells of 8 mm diameter were separately made and filled with 90 µL of each biofilm-forming bacterial isolate (10^6 CFU/mL), plus 10 µL of each active pyrazole derivative (sub-MICs). Wells containing the bacterial isolates without treatment were used as controls. The signal diffusion zone diameter produced during the bacterial growth was measured in the presence of pyrazole and pyrazolo[1,5-a]pyrimidine derivatives and compared with the zone diameter of the violacein production by CV026.

P. aeruginosa = test: Anti-QS activity via signal inhibition, CV026 as indicator; assay type: cell-based; conditions: P. aeruginosa 10^6 CFU/mL; sub-MICs; control 11.2 mm
Protocol: as §4

S. aureus = test: as above; assay type: cell-based; conditions: S. aureus 10^6 CFU/mL; sub-MICs; control 12.0 mm
Protocol: as §4

S. aureus biofilm = test: Crystal violet biofilm inhibition assay; assay type: cell-based; conditions: compounds at their MICs, crystal violet OD570
Protocol: as §3

T2 sequence (P00915 whole entry): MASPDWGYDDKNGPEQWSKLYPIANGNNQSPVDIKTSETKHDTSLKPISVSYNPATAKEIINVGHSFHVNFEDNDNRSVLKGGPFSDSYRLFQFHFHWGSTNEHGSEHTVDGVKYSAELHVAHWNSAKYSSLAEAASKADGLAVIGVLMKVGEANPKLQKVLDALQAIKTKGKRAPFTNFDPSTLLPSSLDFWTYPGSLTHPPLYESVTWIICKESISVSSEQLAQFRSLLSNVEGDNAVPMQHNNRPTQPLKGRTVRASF

Structure (SMILES)	zone of inhibition at 10000 µM (P. aeruginosa DH-5698 [1])	MIC (A. baumannii DH-243)	MBC/MIC (A. baumannii DH-243)	MIC (P. aeruginosa DH-5698 [2])	MBC/MIC (P. aeruginosa DH-5698 [2])	IC50 (hCA-II)	Ki (hCA-II)	IC50 (hCA-I)	Ki (hCA-I)	Biofilm Eradication % (P. aeruginosa biofilm)	MIC (S. aureus DH-432)	MBC/MIC (S. aureus DH-432)	Concentration at which anti-QS activity (visible halo zone) was observed (C. violaceum CV026)	QS signal diffusion zone (P. aeruginosa)	QS signal diffusion zone (S. aureus)	Biofilm Eradication % (S. aureus biofilm)	MIC (Mean ± SEM) (S. aureus DH-432; 24 h)
CCOC(=O)c1ccc(N=Nc2c(N)n[nH]c2N)cc1 [Compound 3a, Ethyl 4-((3,5-diamino-1H-pyrazol-4-yl)diazenyl)benzoate]	30.8 mm	0.25 ± 0.2 µg/mL (≈ 0.911 µM)	0.5	0.125 ± 0.2 µg/mL (≈ 0.456 µM)	0.5	73.2 nM	91.8 nM	92.3 nM	88.8 nM	88% and > 80%	0.125 ± 0.3 µg/mL (≈ 0.456 µM)	0.5	0.0625 µg/mL	7.8 mm	5.0 mm	–	–
CCOC(=O)c1ccc(N=Nc2c(N=Cc3ccc(N(C)C)cc3)n[nH]c2N)cc1 [Compound 5a, Ethyl 4-((5-amino-3-((4-(dimethylamino)benzylidene)amino)-1H-pyrazol-4-yl)diazenyl)benzoate]	28.3 mm	0.5 ± 0.3 µg/mL (≈ 1.23 µM)	0.5	0.5 ± 0.1 µg/mL (≈ 1.23 µM)	0.5	161 nM	144 nM	138 nM	176 nM	63% and 63 ± 0.52%	0.25 µg/mL (≈ 0.617 µM)	0.5	0.187 µg/mL	9.8 mm	7.3 mm	69% and 69 ± 0.24%	0.25 ± 0.2 µg/mL (≈ 0.617 µM)
CCOC(=O)c1ccc(N=Nc2c(N)nn3c(C)cc(C)nc23)cc1 [Compound 6, ethyl-4-((2-amino-5,7-dimethylpyrazolo[1,5-a]pyrimidin-3-yl)diazenyl)benzoate]	28.8 mm	0.5 ± 0.1 µg/mL (≈ 1.48 µM)	0.5	0.375 ± 0.4 µg/mL (≈ 1.11 µM)	0.5	130 nM	146 nM	169 nM	153 nM	76% and 76 ± 0.52%	0.187 ± 0.1 µg/mL (≈ 0.553 µM)	0.5	0.125 µg/mL	8.7 mm	6.5 mm	80% and 80 ± 0.63%	–
CCOC(=O)c1ccc(N=Nc2c(N)nn3c(N)c(C#N)c(-c4ccc(N(C)C)cc4)nc23)cc1 [Compound 9a, Ethyl-4-((2,7-diamino-6-cyano-5-(4-(dimethylamino)phenyl)pyrazolo[1,5-a]pyrimidin-3-yl)diazenyl)benzoate]	28.5 mm	0.375 ± 0.2 µg/mL (≈ 0.799 µM)	0.5	0.375 ± 0.3 µg/mL (≈ 0.799 µM)	0.5	142 nM	136 nM	123 nM	102 nM	66% and 66 ± 0.9%	0.25 ± 0.2 µg/mL (≈ 0.532 µM)	0.5	0.187 µg/mL	9.5 mm	6.9 mm	72% and 72 ± 0.81%	–
CCOC(=O)c1ccc(N=Nc2c(N)nn3c(O)c(C#N)c(-c4ccc(N(C)C)cc4)nc23)cc1 [Compound 10a, Ethyl-4-((2-amino-6-cyano-5-(4-(dimethylamino)phenyl)-7-hydroxypyrazolo[1,5-a]pyrimidin-3-yl)diazenyl)benzoate]	30.1 mm	0.375 ± 0.4 µg/mL (≈ 0.797 µM)	0.5	0.187 ± 0.1 µg/mL (≈ 0.397 µM)	0.5	122 nM	139 nM	153 nM	144 nM	80% and > 80%	0.125 ± 0.2 µg/mL (≈ 0.266 µM)	0.5	0.0625 µg/mL	8.0 mm	6.2 mm	–	–
